Results as given in patent US8513232B2, “Substituted spirocyclic piperidine derivatives as histamine-3 (H3) receptor ligands” (Cephalon, Inc., priority 2008, dated 2013).
Where two headings read alike, the source gives them in different places.

Legend:
human H3 receptor = target: T1, human H3 receptor (Homo sapiens, UniProt Q9Y5N1); experiment: Human H3 radioligand binding ([3H]-N-alpha-methylhistamine, SPA)
T1 construct: expressed in transfected cells
Summary of the method: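 SPA competition binding on membranes from CHO cells stably expressing human H3 receptor (10 μg protein/well) with ~1 nM [3H]-N-alpha-methylhistamine and compound at 0.01 nM-30 μM. Incubation 4 h at room temperature in 50 mM Tris-HCl pH 7.4, 5 mM MgCl2, 0.1% BSA; non-specific binding defined with 10 μM clobenpropit.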

[1] = target: T2, rat histamine H3 receptor (Rattus norvegicus, UniProt Q9QYN8); experiment: Rat H3 radioligand binding ([3H]-N-alpha-methylhistamine, SPA)
T2 construct: encoding the entire 445-amino-acid rat histamine H3 receptor; expressed in transfected cells; membrane preparation
Summary of the method: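 Membranes from CHO-A3 cells stably expressing full-length rat H3 receptor (10 μg protein/well) incubated 4 h at room temperature, protected from light, with ~1 nM [3H]-N-alpha-methylhistamine and compound (0.01 nM-30 μM) in 50 mM Tris HCl pH 7.4, 5 mM MgCl2, 0.1% BSA. Binding read by SPA; 10 μM clobenpropit defined non-specific binding.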

[2] = Human H3 binding, Table B, Examples 136-362, read-out: hum H3 binding Ki
[3] = Rat H3 binding, Table B, Examples 136-362, read-out: rat H3 binding Ki
[4] = human H3 binding, Table D, read-out: Human H3 Ki
[5] = rat H3 binding, Table D, read-out: Rat H3 Ki
[6] = Table C, human H3 binding, read-out: Human H3 Ki
[7] = Table C, rat H3 binding, read-out: Rat H3 Ki
[8] = Table A, human H3 binding, read-out: Human Ki
[9] = Table A, rat H3 binding, read-out: Rat Ki

T1 sequence (Q9Y5N1 whole entry): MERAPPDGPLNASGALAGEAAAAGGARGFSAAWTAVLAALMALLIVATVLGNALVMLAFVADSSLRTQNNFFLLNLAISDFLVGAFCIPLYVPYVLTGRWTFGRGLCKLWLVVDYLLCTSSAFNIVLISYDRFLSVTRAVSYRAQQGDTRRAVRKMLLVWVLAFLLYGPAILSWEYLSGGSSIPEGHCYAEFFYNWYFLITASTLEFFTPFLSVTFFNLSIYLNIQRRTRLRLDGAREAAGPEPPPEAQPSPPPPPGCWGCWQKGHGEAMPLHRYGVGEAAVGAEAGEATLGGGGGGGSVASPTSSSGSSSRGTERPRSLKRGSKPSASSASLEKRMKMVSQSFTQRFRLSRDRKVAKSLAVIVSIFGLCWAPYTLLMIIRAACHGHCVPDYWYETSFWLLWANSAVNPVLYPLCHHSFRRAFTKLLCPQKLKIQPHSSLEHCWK
T2 sequence (Q9QYN8 whole entry): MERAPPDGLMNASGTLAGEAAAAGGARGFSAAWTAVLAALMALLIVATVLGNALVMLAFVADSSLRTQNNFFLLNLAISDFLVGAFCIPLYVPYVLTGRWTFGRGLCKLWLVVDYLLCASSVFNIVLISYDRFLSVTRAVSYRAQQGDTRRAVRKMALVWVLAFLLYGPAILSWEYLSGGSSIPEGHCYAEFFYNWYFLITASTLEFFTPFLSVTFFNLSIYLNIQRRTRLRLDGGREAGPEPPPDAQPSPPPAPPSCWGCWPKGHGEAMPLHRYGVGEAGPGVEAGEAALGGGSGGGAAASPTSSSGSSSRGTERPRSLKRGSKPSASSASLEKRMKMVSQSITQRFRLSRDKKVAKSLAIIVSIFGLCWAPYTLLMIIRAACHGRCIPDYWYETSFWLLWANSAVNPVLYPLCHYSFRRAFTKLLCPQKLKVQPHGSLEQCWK

SMILES | Ki (human H3 receptor; [2]) | Ki [1, 3] | melting point | other results
CN(C)C(=O)c1ccc(N2CCN(c3ccc4c(c3)COC3(CCN(C5CCC5)CC3)O4)C2=O)cc1 [Example 244] | < 200 nM | < 200 nM | 243 to 245 °C | 
Cn1cc(-c2ccc3c(c2)COC2(CCN(C4CCC4)CC2)O3)c2ccccc2c1=O [Example 786] |  |  | 207 to 209 °C | Ki (human H3 receptor; [4]): < 200 nM; Ki [1, 5]: < 200 nM
CC(=O)N1CCCN(c2ccc3c(c2)CCC2(CCN(C4CCC4)CC2)O3)CC1 [Example 395] |  |  | 276 to 278 °C | Ki (human H3 receptor; [6]): < 200 nM; Ki [1, 7]: < 200 nM
O=c1ccc(-c2ccc3c(c2)COC2(CCN(C4CCOCC4)CC2)O3)c[nH]1 [Example 723] |  |  | 230 to 232 °C | Ki (human H3 receptor; [4]): < 200 nM; Ki [1, 5]: < 200 nM
OCCn1cc(-c2ccc3c(c2)CCC2(CCN(C4CCC4)CC2)O3)cn1 [Example 198] | < 200 nM | < 200 nM | 101 to 103 °C | 
COCCNC(=O)c1ccc(-c2cc3c(cc2Cl)OC2(CCN(C4CCC4)CC2)OC3)cc1 [Example 264] | < 200 nM | 200 to 1000 nM | 49 to 51 °C | 
CNC(=O)N1CCN(c2ccc3c(c2)COC2(CCN(C4CCC4)CC2)O3)CC1 [Example 174] | < 200 nM | < 200 nM | 59 to 62 °C | 
CNC(=O)c1ccc(-c2ccc3c(c2)COC2(CCN(C4CCC4)CC2)O3)cn1 [Example 160] | < 200 nM | < 200 nM | 208 to 210 °C | 
COCCNC(=O)c1ccc(-c2ccc3c(c2)CCC2(CCN(C4CCC4)CC2)O3)cc1F [Example 217] | < 200 nM | < 200 nM | 190 to 192 °C | 
CNC(=O)c1cn(-c2ccc3c(c2)COC2(CCN(C4CCC4)CC2)O3)cc1C [Example 86] |  |  | 149 to 153 °C | Ki (human H3 receptor; [8]): < 200 nM; Ki [1, 9]: < 200 nM
CN1CCN(c2ccc3c(c2)CCC2(CCN(C4CCC4)CC2)O3)CC1 [Example 364] |  |  | 125 to 126 °C | Ki (human H3 receptor; [6]): < 200 nM; Ki [1, 7]: < 200 nM
COC1CCN(C(=O)c2ccc(-c3ccc4c(c3)COC3(CCN(C5CCC5)CC3)O4)cc2)CC1 [Example 263] | < 200 nM | < 200 nM | 94 to 96 °C | 
O=C(N[C@@H]1CCOC1)c1ccc(-c2ccc3c(c2)CCC2(CCN(C4CCC4)CC2)O3)cc1 [Example 341] | < 200 nM | < 200 nM | 194 to 195 °C | 
O=C(Nc1ccc(F)cc1)Nc1ccc2c(c1)COC1(CCN(C3CCC3)CC1)O2 [Example 248] | < 200 nM | < 200 nM | 237 to 238 °C | 
O=C1CC=C(c2ccc3c(c2)COC2(CCN(C4CCC4)CC2)O3)CC1 [Example 497] |  |  | 153 to 155 °C | Ki (human H3 receptor; read-out: Human H3 Ki): < 200 nM; Ki ([1]; read-out: Rat H3 kI): < 200 nM
O=C(Nc1ccc2c(c1)CCC1(CCN(C3CCC3)CC1)O2)c1ccncc1 [Example 188] | < 200 nM | < 200 nM | 65 to 67 °C | 
OC1CC=C(c2ccc3c(c2)COC2(CCN(C4CCC4)CC2)O3)CC1 (stereo not drawn) [Example 525] |  |  | 128 to 132 °C | Ki (human H3 receptor; read-out: Human H3 Ki): < 200 nM; Ki ([1]; read-out: Rat H3 kI): < 200 nM
O=C(Nc1cccc(F)c1)Nc1ccc2c(c1)COC1(CCN(C3CCC3)CC1)O2 [Example 245] | < 200 nM | < 200 nM | 227 to 228 °C | 
CC(C)C(=O)N1CCC(Oc2ccc3c(c2)CCC2(CCN(C4CCC4)CC2)O3)CC1 [Example 427] |  |  | 239 to 241 °C | Ki (human H3 receptor; [6]): < 200 nM; Ki [1, 7]: < 200 nM
O=c1cccc(-c2ccc3c(c2)COC2(CCN(C4CCC4)CC2)O3)[nH]1 [Example 476] |  |  | 207 to 209 °C | Ki (human H3 receptor; read-out: Human H3 Ki): < 200 nM; Ki ([1]; read-out: Rat H3 kI): < 200 nM

SMILES | Ki (human H3 receptor; [2]) | Ki [1, 3] | melting point | other results
CN(C)C(=O)C1CCCN(c2ccc3c(c2)COC2(CCN(C4CCC4)CC2)O3)C1 (stereo not drawn) [Example 612] |  |  | 51.2 to 54.2 °C | Ki (human H3 receptor; [4]): < 200 nM; Ki [1, 5]: < 200 nM
c1c[nH]c(-c2ccc3c(c2)COC2(CCN(C4CCC4)CC2)O3)c1 [Example 702] |  |  | 179 to 180 °C | Ki (human H3 receptor; [4]): < 200 nM; Ki [1, 5]: < 200 nM
c1cc2c(cc1C1CCOC1)COC1(CCN(C3CCC3)CC1)O2 (stereo not drawn) [Example 507] |  |  | 249 to 250 °C | Ki (human H3 receptor; read-out: Human H3 Ki): < 200 nM; Ki ([1]; read-out: Rat H3 kI): < 200 nM
O=C(Nc1ccc2c(c1)COC1(CCN(C3CCC3)CC1)O2)c1ccc2ncsc2c1 [Example 316] | < 200 nM | < 200 nM | 232 to 234 °C | 
O[C@H]1CCN(c2ccc3c(c2)COC2(CCN(C4CCC4)CC2)O3)C1 [Example 354] | < 200 nM | < 200 nM | 72.6 to 74.9 °C | 
O=C(c1ccc(-c2ccc3c(c2)COC2(CCN(C4CCC4)CC2)O3)cc1)N1CCCCC1 [Example 27] |  |  | 59 to 62 °C | Ki (human H3 receptor; [8]): < 200 nM; Ki [1, 9]: < 200 nM
CN(C)C(=O)c1ccc(-c2ccc3c(c2)COC2(CCN(C4CCC4)CC2)O3)nc1 [Example 638] |  |  | 190 to 193 °C | Ki (human H3 receptor; [4]): < 200 nM; Ki [1, 5]: < 200 nM
COCCNC(=O)c1ccc(-c2ccc3c(c2)CCC2(CCN(C4CCC4)CC2)O3)cc1Cl [Example 332] | < 200 nM | < 200 nM | 231 to 232 °C | 
COCCN(C)C(=O)c1c(F)cc(-c2ccc3c(c2)CCC2(CCN(C4CCC4)CC2)O3)cc1F [Example 360] | < 200 nM | < 200 nM | 100 to 102 °C | 
CC(C)NC(=O)N1CCN(c2ccc3c(c2)COC2(CCN(C4CCC4)CC2)O3)CC1 [Example 279] | < 200 nM | < 200 nM | 206.5 to 207.5 °C | 
CNC(=O)c1ccc(-c2ccc3c(c2)COC2(CCN(C4CCC4)CC2)O3)cc1O [Example 704] |  |  | 252 to 254 °C | Ki (human H3 receptor; [4]): < 200 nM; Ki [1, 5]: < 200 nM
COC1(c2ccc3c(c2)COC2(CCN(C4CCC4)CC2)O3)CCC1 [Example 559] |  |  | < 50 °C | Ki (human H3 receptor; read-out: Human H3 Ki): < 200 nM; Ki ([1]; read-out: Rat H3 kI): < 200 nM
Cc1c(-c2cc[nH]c(=O)c2)ccc2c1COC1(CCN(C3CCC3)CC1)O2 [Example 558] |  |  | > 300 °C | Ki (human H3 receptor; read-out: Human H3 Ki): < 200 nM; Ki ([1]; read-out: Rat H3 kI): < 200 nM
Cc1[nH]c(=O)ccc1-c1ccc2c(c1)COC1(CCN(C3CCC3)CC1)O2 [Example 736] |  |  | 191 to 193 °C | Ki (human H3 receptor; [4]): < 200 nM; Ki [1, 5]: < 200 nM
CC(=O)N1CCC(Oc2ccc3c(c2)CCC2(CCN(C4CCC4)CC2)O3)CC1 [Example 426] |  |  | 227 to 229 °C | Ki (human H3 receptor; [6]): < 200 nM; Ki [1, 7]: < 200 nM
COCCNC(=O)c1c(F)cc(-c2ccc3c(c2)COC2(CCN(C4CCC4)CC2)O3)cc1F [Example 262] | < 200 nM | < 200 nM | 125 to 126.3 °C | 
NS(=O)(=O)c1ccc(-c2ccc3c(c2)COC2(CCN(C4CCC4)CC2)O3)cc1 [Example 48] |  |  | 195 to 200 °C | Ki (human H3 receptor; [8]): < 200 nM; Ki [1, 9]: < 200 nM
CNC(=O)c1ccc(-c2ccc3c(c2)COC2(CCN(C4CCC4)CC2)O3)cc1OC [Example 633] |  |  | 175 to 177 °C | Ki (human H3 receptor; [4]): < 200 nM; Ki [1, 5]: < 200 nM
COc1ncc(-c2ccc3c(c2)COC2(CCN(C4CCC4)CC2)O3)c(C)c1C [Example 800] |  |  | 233 to 235 °C | Ki (human H3 receptor; [4]): < 200 nM; Ki [1, 5]: < 200 nM
c1cc2c(cc1OC1CCOCC1)CCC1(CCN(C3CCC3)CC1)O2 [Example 433] |  |  | 252 to 254 °C | Ki (human H3 receptor; [6]): < 200 nM; Ki [1, 7]: < 200 nM
